Experimental data taken from patent publication US8198273B2, “Compounds and methods for kinase modulation, and indications therefor” (Plexxikon Inc., priority 2009, dated 2012).

Key:
[1] = tested on: A375 melanoma cells (B-Raf V600E); test: A375 cell growth inhibition (ATPlite); assay type: cell-based; conditions: Homo sapiens, A-375, 72 h; A375, 3 days incubation
Summary of the method: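 ATPlite luminescence, taken as a cell-number measure, gave IC50 values after a 3-day 37° C, 5% CO2 incubation. Compounds were tested as 8-point threefold titrations, highest final concentration 10 μM, added to cells seeded the day before.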

[2] = Relative solubility by turbidity in aqueous buffers of varying pH; assay type: physicochemical; conditions: for turbidity threshold (L, M, H) 7.4: HEPES pH 7.4; for turbidity threshold (L, M, H) 4.5: SIF pH 4.5; for turbidity threshold (L, M, H) 6.8: SIF pH 6.8; for turbidity threshold (L, M, H) 1.4: buffer pH 1.4 (SGF)
Summary of the method: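 Turbidity endpoint: concentration where optical density at 490, 535 and 650 nm exceeds 0.01, three-wavelength average used. Buffers at pH 1.5, 4.5, 6.8 and 7.4; DMSO serial dilutions of 25 mM stock spiked 1 μL into 99 μL buffer. Low <31.3, moderate 31.3–250, high >250 μM.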

CYP2D6 = CYP2D6 (Homo sapiens, UniProt P10635); test: CYP2D6 inhibition (fluorescent substrate); assay type: in vitro ADME; conditions: CYP2D6, AMMC substrate; read-out: Cyp IC50 2D6
Summary of the method: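 First, 100 mM DMSO stocks are diluted into acetonitrile, then twofold through co-factor mix for 10 points. Next, mixtures are preincubated 10 min at 37 °C.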

Chain of CYP2D6 (P10635 whole entry): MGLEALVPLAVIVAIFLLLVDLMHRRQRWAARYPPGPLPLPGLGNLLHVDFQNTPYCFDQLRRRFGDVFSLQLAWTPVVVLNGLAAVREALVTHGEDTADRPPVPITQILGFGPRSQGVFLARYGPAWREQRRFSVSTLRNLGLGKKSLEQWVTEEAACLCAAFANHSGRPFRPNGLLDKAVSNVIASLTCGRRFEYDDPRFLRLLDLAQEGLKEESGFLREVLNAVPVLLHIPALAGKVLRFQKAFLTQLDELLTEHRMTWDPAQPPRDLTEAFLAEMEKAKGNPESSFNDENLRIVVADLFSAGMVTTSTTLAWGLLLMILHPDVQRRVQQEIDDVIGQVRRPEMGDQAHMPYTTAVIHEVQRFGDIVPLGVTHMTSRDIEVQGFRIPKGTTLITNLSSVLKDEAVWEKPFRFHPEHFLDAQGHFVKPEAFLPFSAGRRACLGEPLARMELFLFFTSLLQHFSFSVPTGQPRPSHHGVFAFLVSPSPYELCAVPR

| IC50 [1] [µM] | IC50 (CYP2D6) [µM] | Structure (SMILES) | turbidity threshold (L, M, H) 7.4 [2] | turbidity threshold (L, M, H) 4.5 [2] | turbidity threshold (L, M, H) 6.8 [2] | turbidity threshold (L, M, H) 1.4 [2] |
| --- | --- | --- | --- | --- | --- | --- |
| < 1 | > 10 | CCCS(=O)(=O)Nc1ccc(F)c(C(=O)c2c[nH]c3ncc(-c4ccc(S(=O)(=O)NC5CC5)cc4)cc23)c1F [P-2168, N-Cyclopropyl-4-{3-[2,6-difluoro-3-(propane-1-sulfonylamino)-benzoyl]-1H-pyrrolo[2,3-b]pyridin-5-yl}-benzenesulfonamide] | L (low solubility if the threshold concentration is <31.3 04) | L (low solubility if the threshold concentration is <31.3 04) | L (low solubility if the threshold concentration is <31.3 04) | L (low solubility if the threshold concentration is <31.3 04) |
| < 0.1 | > 10 | CCCS(=O)(=O)Nc1ccc(F)c(C(=O)c2c[nH]c3ncc(-c4ccc(S(C)(=O)=O)cc4)cc23)c1F [P-2183, Propane-1-sulfonic acid {2,4-difluoro-3-[5-(4-methanesulfonyl-phenyl)-1H-pyrrolo[2,3-b]pyridine-3-carbonyl]-phenyl}-amide] | L (low solubility if the threshold concentration is <31.3 04) | L (low solubility if the threshold concentration is <31.3 04) | L (low solubility if the threshold concentration is <31.3 04) | L (low solubility if the threshold concentration is <31.3 04) |
| < 5 | > 10 | CCCS(=O)(=O)Nc1ccc(F)c(C(=O)c2c[nH]c3ncc(-c4ccc(S(N)(=O)=O)cc4)cc23)c1F [P-2194, 4-{3-[2,6-Difluoro-3-(propane-1-sulfonylamino)-benzoyl]-1H-pyrrolo[2,3-b]pyridin-5-yl}-benzenesulfonamide] | L (low solubility if the threshold concentration is <31.3 04) | L (low solubility if the threshold concentration is <31.3 04) | L (low solubility if the threshold concentration is <31.3 04) | L (low solubility if the threshold concentration is <31.3 04) |
| < 1 | > 10 | CCCS(=O)(=O)Nc1ccc(F)c(C(=O)c2c[nH]c3ncc(-c4ccc(F)nc4)cc23)c1F [P-2155, Propane-1-sulfonic acid {2,4-difluoro-3-[5-(6-fluoro-pyridin-3-yl)-1H-pyrrolo[2,3-b]pyridine-3-carbonyl]-phenyl}-amide] | L (low solubility if the threshold concentration is <31.3 04) | L (low solubility if the threshold concentration is <31.3 04) | L (low solubility if the threshold concentration is <31.3 04) | L (low solubility if the threshold concentration is <31.3 04) |
| < 0.1 | > 10 | CCCS(=O)(=O)Nc1ccc(F)c(C(=O)c2c[nH]c3ncc(-c4ccc(N5CCCC5)nc4)cc23)c1F [P-2231, Propane-1-sulfonic acid {2,4-difluoro-3-[5-(6-pyrrolidin-1-yl-pyridin-3-yl)-1H-pyrrolo[2,3-b]pyridine-3-carbonyl]-phenyl}-amide] | L (low solubility if the threshold concentration is <31.3 04) | L (low solubility if the threshold concentration is <31.3 04) | L (low solubility if the threshold concentration is <31.3 04) | L (low solubility if the threshold concentration is <31.3 04) |
| < 1 | > 10 | Cc1cnc2[nH]cc(C(=O)c3c(F)ccc(NS(=O)(=O)c4cccc(F)c4)c3F)c2c1 [P-2016, N-[2,4-Difluoro-3-(5-methyl-1H-pyrrolo[2,3-b]pyridine-3-carbonyl)-phenyl]-3-fluoro-benzenesulfonamide] | M (moderate solubility if the threshold concentration is 31.3 μM to 250 μM) | L (low solubility if the threshold concentration is <31.3 04) | M (moderate solubility if the threshold concentration is 31.3 μM to 250 μM) | H (high solubility if the threshold concentration is >250 μM) |
| < 1 | > 10 | CCCS(=O)(=O)Nc1ccc(F)c(C(=O)c2c[nH]c3ncc(-c4ccc(NC(C)=O)nc4)cc23)c1F [P-2193, N-(5-{3-[2,6-Difluoro-3-(propane-1-sulfonylamino)-benzoyl]-1H-pyrrolo[2,3-b]pyridin-5-yl}-pyridin-2-yl)-acetamide] | L (low solubility if the threshold concentration is <31.3 04) | L (low solubility if the threshold concentration is <31.3 04) | L (low solubility if the threshold concentration is <31.3 04) | M (moderate solubility if the threshold concentration is 31.3 μM to 250 μM) |

The next lines start with the compound.

| Structure (SMILES) | IC50 [1] [µM] | IC50 (CYP2D6) [µM] | turbidity threshold (L, M, H) 7.4 [2] | turbidity threshold (L, M, H) 4.5 [2] | turbidity threshold (L, M, H) 6.8 [2] | turbidity threshold (L, M, H) 1.4 [2] |
| --- | --- | --- | --- | --- | --- | --- |
| N#Cc1cnc2[nH]cc(C(=O)c3cccc(NS(=O)(=O)c4cccc(F)c4)c3F)c2c1 [P-2053, N-[3-(5-Cyano-1H-pyrrolo[2,3-b]pyridine-3-carbonyl)-2-fluoro-phenyl]-3-fluoro-benzenesulfonamide] | < 5 | > 10 | M (moderate solubility if the threshold concentration is 31.3 μM to 250 μM) | L (low solubility if the threshold concentration is <31.3 04) | M (moderate solubility if the threshold concentration is 31.3 μM to 250 μM) | L (low solubility if the threshold concentration is <31.3 04) |
| Cc1cnc2[nH]cc(C(=O)c3c(F)ccc(NS(=O)(=O)c4c(F)cccc4F)c3F)c2c1 [P-2024, N-[2,4-Difluoro-3-(5-methyl-1H-pyrrolo[2,3-b]pyridine-3-carbonyl)-phenyl]-2,6-difluoro-benzenesulfonamide] | < 5 | > 10 | M (moderate solubility if the threshold concentration is 31.3 μM to 250 μM) | L (low solubility if the threshold concentration is <31.3 04) | M (moderate solubility if the threshold concentration is 31.3 μM to 250 μM) | M (moderate solubility if the threshold concentration is 31.3 μM to 250 μM) |
| Cc1cnc2[nH]cc(C(=O)c3c(F)ccc(NS(=O)(=O)c4ccccc4F)c3F)c2c1 [P-2014, N-[2,4-Difluoro-3-(5-methyl-1H-pyrrolo[2,3-b]pyridine-3-carbonyl)-phenyl]-2-fluoro-benzenesulfonamide] | < 1 | > 10 | M (moderate solubility if the threshold concentration is 31.3 μM to 250 μM) | M (moderate solubility if the threshold concentration is 31.3 μM to 250 μM) | M (moderate solubility if the threshold concentration is 31.3 μM to 250 μM) | L (low solubility if the threshold concentration is <31.3 04) |
| COc1ncc(-c2cnc3[nH]cc(C(=O)c4c(F)ccc(NS(=O)(=O)c5ccccc5F)c4F)c3c2)cn1 [P-2041, N-{2,4-Difluoro-3-[5-(2-methoxy-pyrimidin-5-yl)-1H-pyrrolo[2,3-b]pyridine-3-carbonyl]-phenyl}-2-fluoro-benzenesulfonamide] | < 1 | > 10 | L (low solubility if the threshold concentration is <31.3 04) | L (low solubility if the threshold concentration is <31.3 04) | L (low solubility if the threshold concentration is <31.3 04) | L (low solubility if the threshold concentration is <31.3 04) |
| COc1ncc(-c2cnc3[nH]cc(C(=O)c4c(F)ccc(NS(=O)(=O)c5cc(F)ccc5F)c4F)c3c2)cn1 [P-2042, N-{2,4-Difluoro-3-[5-(2-methoxy-pyrimidin-5-yl)-1H-pyrrolo[2,3-b]pyridine-3-carbonyl]-phenyl}-2,5-difluoro-benzenesulfonamide] | < 1 | > 10 | L (low solubility if the threshold concentration is <31.3 04) | L (low solubility if the threshold concentration is <31.3 04) | L (low solubility if the threshold concentration is <31.3 04) | L (low solubility if the threshold concentration is <31.3 04) |
| N#Cc1cnc2[nH]cc(C(=O)c3cccc(NS(=O)(=O)c4cc(F)ccc4F)c3F)c2c1 [P-2052, N-[3-(5-Cyano-1H-pyrrolo[2,3-b]pyridine-3-carbonyl)-2-fluoro-phenyl]-2,5-difluoro-benzenesulfonamide] | < 1 | > 10 | M (moderate solubility if the threshold concentration is 31.3 μM to 250 μM) | L (low solubility if the threshold concentration is <31.3 04) | M (moderate solubility if the threshold concentration is 31.3 μM to 250 μM) | L (low solubility if the threshold concentration is <31.3 04) |
